For one assay, the target named is T1, Kv1.1 K channel (Homo sapiens, UniProt Q09470).
T1 construct: expressed in transfected cells; host or cells: Xenopus oocytes
Put plainly: K currents of Shaker subfamily channels expressed in xenopus oocytes. The class given is cell-based. Particulars: concentrations up to 1 μM. The protocol: (§1) In addition, SNX-483 was evaluated for the ability to inhibit members of the Shaker subfamily of voltage-dependent K channels expressed in xenopus oocytes. At concentrations up to 1 μM, SNX-483 had no effect on K currents mediated by Kv1.1, Kv1.2, Kv1.3 or Kv1.4 K channels.

The target of the next assay is T2, Kv1.2 K channel (Homo sapiens, UniProt P16389).
T2 construct: expressed in transfected cells; host or cells: Xenopus oocytes
The assay is described as above. The class given is cell-based. Particulars: concentrations up to 1 μM. The protocol: as §1

A further assay has as its target T3, Kv1.4 K channel (Homo sapiens, UniProt P22459).
T3 construct: expressed in transfected cells; host or cells: Xenopus oocytes
The assay is described as above. Particulars: concentrations up to 1 μM. The class given is cell-based. The protocol:
as §1

For a further assay, the target named is T4, Kv1.3 K channel (Homo sapiens, UniProt P22001).
T4 construct: expressed in transfected cells; host or cells: Xenopus oocytes
T4 sequence (P22001 whole entry): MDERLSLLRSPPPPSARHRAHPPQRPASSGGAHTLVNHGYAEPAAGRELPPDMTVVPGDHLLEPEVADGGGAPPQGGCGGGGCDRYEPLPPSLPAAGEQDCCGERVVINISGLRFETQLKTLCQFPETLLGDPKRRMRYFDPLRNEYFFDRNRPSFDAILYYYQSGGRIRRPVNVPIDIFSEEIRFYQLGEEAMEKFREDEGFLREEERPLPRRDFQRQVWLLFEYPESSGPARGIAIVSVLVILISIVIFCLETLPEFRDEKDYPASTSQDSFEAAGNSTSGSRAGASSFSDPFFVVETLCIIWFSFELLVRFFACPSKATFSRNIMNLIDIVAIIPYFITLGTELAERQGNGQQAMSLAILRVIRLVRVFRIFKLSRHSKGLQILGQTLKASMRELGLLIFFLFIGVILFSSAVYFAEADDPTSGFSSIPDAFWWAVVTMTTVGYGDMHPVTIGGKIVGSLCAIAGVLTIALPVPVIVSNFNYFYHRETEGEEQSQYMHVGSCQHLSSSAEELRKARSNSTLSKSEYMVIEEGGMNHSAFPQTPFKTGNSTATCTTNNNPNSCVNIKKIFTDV
Described as above. The class given is cell-based. Particulars: concentrations up to 1 μM. The protocol: as §1

In another assay the test system is L-type Ca channel. Description: Fluorometric Ca flux in INDO1-loaded GH3 cells. The class given is cell-based. Particulars: concentrations exceeding 300 AM (highest concentration tested). The protocol: (§2) In parallel experiments, SNX-483 was tested for its ability to block voltage-dependent calcium (Ca) and voltage-dependent potassium (K) channels. N- and L-type Ca channel-mediated Ca fluxes were measured fluorometrically using INDO1—loaded IMR32 and GH3 cells, respectively. At concentrations exceeding […] (the highest concentration tested), SNX-483 had no effect on either type of Ca flux.

A further assay relates to TTXs Na channels. Put plainly: Whole-cell electrophysiological assay of TTXs Na currents in DRG neurons. The class given is cell-based, Sprague-Dawley rat. An excerpt: FIG. 7 illustrates that at a membrane potential of −55 mV, SNX-483 more potently blocks TTXi Na currents than TTXs Na currents. In experiments carried out in support of the present invention, DRGs containing predominantly TTXi Na currents and TTXs currents were superfused sequentially with increasing concentrations of SNX-483. […]
10-20 day old Sprague-Dawley rat pups were euthanized using CO2 or decapitation. Dorsal root ganglia were removed and placed in Dulbecco s Minimum Essential Medium supplemented with 10% (v/v) fetal bovine serum (DMEM). Ganglia were then cut into small pieces and transferred to DMEM containing 2 mg/ml collagenase and incubated for 30 minutes in a 37° C. incubator with 5% CO2 atmosphere. After 15 minutes incubation, the pieces were gently triturated by three passages through a glass capillary pulled to 0.2 mm i.d. The collagenase was then removed by three washes in 10 ml of DMEM. The final resuspension was into DMEM supplemented with 50 ng/ml NGF, 50 I.U./ml penicillin and […] streptomycin. Cells were then transferred onto glass coverslips coated with collagen and placed in a 37° C. incubator as above. […]
TTXs sodium currents can be measured in large DRG neurons or in other cells or cell lines lacking TTXi Na channels. […]

In a further assay the target is T5, N-type Ca channel (Homo sapiens, UniProt Q00975).
T5 construct: endogenous in cells; host or cells: IMR32 cells
T5 sequence (Q00975 whole entry): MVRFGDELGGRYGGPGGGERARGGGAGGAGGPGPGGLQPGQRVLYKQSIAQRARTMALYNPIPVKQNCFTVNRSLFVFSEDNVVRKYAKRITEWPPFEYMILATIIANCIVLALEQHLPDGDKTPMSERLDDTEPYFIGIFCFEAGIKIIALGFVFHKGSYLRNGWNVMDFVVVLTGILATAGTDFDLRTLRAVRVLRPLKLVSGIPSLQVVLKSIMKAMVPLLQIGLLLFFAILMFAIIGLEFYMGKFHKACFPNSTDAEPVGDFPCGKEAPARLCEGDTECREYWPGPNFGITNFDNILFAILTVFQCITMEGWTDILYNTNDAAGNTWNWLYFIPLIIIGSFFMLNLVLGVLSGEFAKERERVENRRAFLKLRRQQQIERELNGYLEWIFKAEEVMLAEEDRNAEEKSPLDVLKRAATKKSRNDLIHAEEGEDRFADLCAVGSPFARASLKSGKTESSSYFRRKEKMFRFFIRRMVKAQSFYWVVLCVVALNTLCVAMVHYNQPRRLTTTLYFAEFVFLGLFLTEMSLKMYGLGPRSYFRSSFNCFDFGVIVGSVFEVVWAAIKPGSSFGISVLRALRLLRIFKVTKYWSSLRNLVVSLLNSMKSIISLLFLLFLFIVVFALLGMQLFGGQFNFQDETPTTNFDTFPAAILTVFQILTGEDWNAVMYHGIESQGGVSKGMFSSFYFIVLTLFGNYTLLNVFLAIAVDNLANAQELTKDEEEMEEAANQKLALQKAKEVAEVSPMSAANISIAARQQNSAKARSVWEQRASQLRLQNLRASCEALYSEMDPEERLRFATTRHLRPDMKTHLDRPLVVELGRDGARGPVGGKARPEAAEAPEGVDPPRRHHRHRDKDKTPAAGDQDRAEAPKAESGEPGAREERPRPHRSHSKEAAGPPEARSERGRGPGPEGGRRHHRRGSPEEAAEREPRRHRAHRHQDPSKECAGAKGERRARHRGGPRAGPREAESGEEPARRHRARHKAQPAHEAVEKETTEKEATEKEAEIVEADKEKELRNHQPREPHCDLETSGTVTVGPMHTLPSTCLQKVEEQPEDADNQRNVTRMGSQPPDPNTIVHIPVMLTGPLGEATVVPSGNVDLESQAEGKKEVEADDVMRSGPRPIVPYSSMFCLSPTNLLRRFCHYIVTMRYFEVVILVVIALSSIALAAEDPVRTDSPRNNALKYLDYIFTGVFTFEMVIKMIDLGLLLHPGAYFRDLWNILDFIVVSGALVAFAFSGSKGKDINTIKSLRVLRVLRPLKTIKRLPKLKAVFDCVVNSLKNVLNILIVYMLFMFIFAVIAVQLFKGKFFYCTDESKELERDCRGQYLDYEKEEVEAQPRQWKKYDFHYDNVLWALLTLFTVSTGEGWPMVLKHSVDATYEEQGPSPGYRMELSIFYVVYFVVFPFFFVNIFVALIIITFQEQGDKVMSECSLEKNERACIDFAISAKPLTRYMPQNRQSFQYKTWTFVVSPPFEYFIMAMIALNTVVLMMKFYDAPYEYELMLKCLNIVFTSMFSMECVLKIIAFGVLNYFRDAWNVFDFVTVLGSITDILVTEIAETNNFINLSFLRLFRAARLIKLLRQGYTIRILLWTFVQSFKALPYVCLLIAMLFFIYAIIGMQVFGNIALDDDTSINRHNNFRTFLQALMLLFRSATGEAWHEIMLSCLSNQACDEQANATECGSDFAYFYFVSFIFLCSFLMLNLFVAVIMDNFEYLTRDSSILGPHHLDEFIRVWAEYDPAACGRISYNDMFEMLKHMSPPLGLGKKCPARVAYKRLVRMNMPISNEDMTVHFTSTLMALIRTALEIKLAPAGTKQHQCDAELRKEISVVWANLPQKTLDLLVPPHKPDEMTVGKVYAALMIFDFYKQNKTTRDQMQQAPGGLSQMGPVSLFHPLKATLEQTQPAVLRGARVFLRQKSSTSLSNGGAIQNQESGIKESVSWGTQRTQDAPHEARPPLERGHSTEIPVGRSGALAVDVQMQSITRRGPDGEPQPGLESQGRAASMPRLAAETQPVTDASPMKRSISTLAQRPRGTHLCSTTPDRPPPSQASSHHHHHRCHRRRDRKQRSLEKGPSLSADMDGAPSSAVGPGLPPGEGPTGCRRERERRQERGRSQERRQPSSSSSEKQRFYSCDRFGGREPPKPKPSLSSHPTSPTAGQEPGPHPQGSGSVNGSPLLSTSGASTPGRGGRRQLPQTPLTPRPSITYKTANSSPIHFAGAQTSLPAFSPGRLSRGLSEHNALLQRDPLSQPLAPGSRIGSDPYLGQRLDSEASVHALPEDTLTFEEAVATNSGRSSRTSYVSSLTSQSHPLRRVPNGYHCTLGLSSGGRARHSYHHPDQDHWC
T5 sequence (P54289 957-1103, further chain): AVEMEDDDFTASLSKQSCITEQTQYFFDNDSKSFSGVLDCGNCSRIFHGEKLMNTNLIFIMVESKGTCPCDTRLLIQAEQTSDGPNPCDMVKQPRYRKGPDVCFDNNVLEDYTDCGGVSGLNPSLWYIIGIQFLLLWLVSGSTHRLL
T5 sequence (P54284 whole entry, further chain): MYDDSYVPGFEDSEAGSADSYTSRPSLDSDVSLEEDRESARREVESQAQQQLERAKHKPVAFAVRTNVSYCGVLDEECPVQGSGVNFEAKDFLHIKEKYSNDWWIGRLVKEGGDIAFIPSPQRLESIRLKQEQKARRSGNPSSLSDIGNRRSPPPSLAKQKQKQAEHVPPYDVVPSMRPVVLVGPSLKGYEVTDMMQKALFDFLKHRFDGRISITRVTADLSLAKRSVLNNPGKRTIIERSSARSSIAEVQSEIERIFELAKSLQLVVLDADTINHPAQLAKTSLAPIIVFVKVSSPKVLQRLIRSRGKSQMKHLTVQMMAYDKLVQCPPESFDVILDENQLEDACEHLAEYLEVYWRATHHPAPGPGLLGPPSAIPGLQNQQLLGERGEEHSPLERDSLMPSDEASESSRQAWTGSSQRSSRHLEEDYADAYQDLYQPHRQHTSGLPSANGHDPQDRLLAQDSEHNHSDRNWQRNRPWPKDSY
T5 sequence (P54289 25-956, further chain): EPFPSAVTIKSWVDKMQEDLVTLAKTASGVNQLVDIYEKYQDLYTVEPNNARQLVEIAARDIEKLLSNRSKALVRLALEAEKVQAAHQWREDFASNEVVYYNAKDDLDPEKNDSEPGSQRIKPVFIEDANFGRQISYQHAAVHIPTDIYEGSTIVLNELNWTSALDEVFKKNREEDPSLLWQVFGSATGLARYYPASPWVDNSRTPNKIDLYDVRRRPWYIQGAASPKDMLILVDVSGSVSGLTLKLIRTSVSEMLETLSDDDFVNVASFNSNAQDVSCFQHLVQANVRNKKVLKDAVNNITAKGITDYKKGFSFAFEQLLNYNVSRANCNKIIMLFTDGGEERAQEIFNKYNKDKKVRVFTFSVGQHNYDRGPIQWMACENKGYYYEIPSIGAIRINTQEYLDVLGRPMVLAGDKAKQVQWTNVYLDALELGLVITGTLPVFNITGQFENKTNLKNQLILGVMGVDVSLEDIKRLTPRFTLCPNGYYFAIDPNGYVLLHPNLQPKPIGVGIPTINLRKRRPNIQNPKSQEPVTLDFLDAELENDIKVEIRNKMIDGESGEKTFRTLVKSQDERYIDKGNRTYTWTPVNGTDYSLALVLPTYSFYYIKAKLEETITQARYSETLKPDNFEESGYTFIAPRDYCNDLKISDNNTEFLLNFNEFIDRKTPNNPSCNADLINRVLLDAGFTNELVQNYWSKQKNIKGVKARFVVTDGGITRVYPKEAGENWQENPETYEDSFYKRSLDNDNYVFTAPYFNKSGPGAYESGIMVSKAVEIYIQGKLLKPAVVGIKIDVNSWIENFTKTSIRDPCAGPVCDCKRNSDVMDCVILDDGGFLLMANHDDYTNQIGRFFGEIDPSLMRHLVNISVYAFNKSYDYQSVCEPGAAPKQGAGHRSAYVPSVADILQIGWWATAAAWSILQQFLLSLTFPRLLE
Put plainly: Fluorometric Ca flux in INDO1-loaded IMR32 cells. As to conditions: concentrations exceeding 300 AM (highest concentration tested). The class given is cell-based. The protocol:
as §2

The subject of assay [1] is TTXi Na channels. Description: Whole-cell electrophysiological assay of TTXi Na currents in capsaicin-sensitive DRG neurons. The class given is cell-based, Sprague-Dawley rat. Particulars: membrane potential −55 mV. An excerpt: (§3) . Using a voltage paradigm during which a pair of depolarizing steps to −10 mV are separated by a 4 ms repolarizing step, greater than 90% of TTXs Na currents remain inactivated (FIG. 2B, see below). FIGS. 2C and 2D present voltage families of the TTXi (rapidly recovering Na current) and TTXs (slowly recovering Na current), respectively, generated using this paired-pulse paradigm. TTXs currents (FIG. 2D) were generated by subtracting Na currents obtained following a prepulse to −10 mV from those obtained without a prepulse. The fraction of the total Na current carried by the fast-recovering, TTXi, Na channel varied from cell to cell (generally from 70-90% of Na current is carried by a TTXi conductance in capsaicin-sensitive DRGs). […].
(§4) FIG. 4 presents Na currents obtained before and after exposure of cells to solutions containing 50, 100, 200, 500 and 1000 μM SNX-483 in a capsaicin-sensitive DRG neuron (PAN). […] In the experiments presented in FIG. 4, the capsaicin-sensitive neuron was held at −55 mV and stepped twice to −10 mV at 10 second intervals. Similar results have been obtained in every capsaicin-sensitive PAN tested (n=7). Only about 7% of the TTXi Na current that was blocked by 400 μM SNX-483 recovered within 15 minutes of continuously exchanging the recording chamber with fresh extracellular solution. […]

For assay [2], the target named is TTXi Na channels (Rattus norvegicus, UniProt Q62968). The assay is described as above. The class given is cell-based, Sprague-Dawley rat. As to conditions: DRG neuron; 400 μM, depolarizing steps from holding potential −80 mV; read-out: block of TTXi Na current.
From the text: as §3, §4

T1 sequence (Q09470 whole entry): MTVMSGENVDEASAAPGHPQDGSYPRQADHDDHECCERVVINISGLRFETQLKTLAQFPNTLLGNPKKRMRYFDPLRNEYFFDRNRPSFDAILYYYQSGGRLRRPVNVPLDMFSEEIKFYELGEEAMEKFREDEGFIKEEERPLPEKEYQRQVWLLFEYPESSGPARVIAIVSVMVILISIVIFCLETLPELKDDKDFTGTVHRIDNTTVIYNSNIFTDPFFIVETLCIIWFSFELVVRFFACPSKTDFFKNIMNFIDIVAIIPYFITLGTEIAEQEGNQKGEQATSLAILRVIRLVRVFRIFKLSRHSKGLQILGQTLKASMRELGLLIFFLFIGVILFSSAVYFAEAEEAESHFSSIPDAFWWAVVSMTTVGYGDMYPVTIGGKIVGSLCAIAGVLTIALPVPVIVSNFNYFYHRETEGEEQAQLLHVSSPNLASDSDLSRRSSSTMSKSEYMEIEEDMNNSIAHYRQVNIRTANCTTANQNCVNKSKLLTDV

One may read the IC50 as the concentration needed to halve the response being measured. Turning to `CCNCC(=O)Nc1c(C)ccc(O)c1C` [SNX-483, 2-(ethylamino)-N-(3-hydroxy-2,6-dimethylphenyl) acetamide], at Kv1.1 K channel, the “effect on K currents mediated by Kv1.1” value is “no effect”. The “effect on K currents mediated by Kv1.2” value at Kv1.2 K channel was “no effect”. For the same molecule, on Kv1.4 K channel, the “effect on K currents mediated by Kv1.4” value was “no effect”. The “effect on K currents mediated by Kv1.3” value at Kv1.3 K channel is recorded as “no effect”. Further, the “effect on L-type Ca channel-mediated Ca flux” value in the assay on L-type Ca channel is “no effect”. Also, the “block of TTXs Na currents” value with TTXs Na channels (400 μM, large capsaicin-insensitive DRG clamped at −55 mV, 16 ms repolarizing step) is recorded as “does not block”. In addition, the midpoint of inhibition in the assay on TTXs Na channels (membrane potential −55 mV), the IC50, lay at 222 ± 12 µM. The “effect on N-type Ca channel-mediated Ca flux” value at N-type Ca channel is recorded as “no effect”. In addition, the “Potency ratio 1/(IC50, TTXi/IC50, TTXs)” value in the assay on TTXi Na channels [1] worked out at 3.1. Besides, at TTXi Na channels [2], the inhibition at 400 µM came to 20%.

Source of the values: patent US6489119B1, “Analgesic screening method and composition” (priority 1996, dated 2002).
